From publication PMC10555500, “Evaluation of the Antiproliferative Properties of CpRu Complexes Containing N-Methylated Triazaphosphaadamantane Derivatives” (Bioinorganic Chemistry and Applications, 2023) come the findings set out here.

Bounds are passed on as bounds.

The series is described as follows: Stability in DMSO-d6 and DMSO-d6/D2O monitored by 31P{1H} NMR. It counts as physicochemical. An excerpt:
The assessment of the biological properties of the complexes requires their dissolution in a cell culture medium which is mainly constituted by water. When the complex is not hydrosoluble enough, the used protocol contemplates preliminary dissolution in DMSO before the addition to the culture medium. Thus, it is important to determine the stability and behaviour of the complexes in both DMSO and water/DMSO mixtures to check whether different species have been formed when dissolved. Dissolutions in DMSO-d6 and DMSO-d6/D2O of the new complexes 8 and 11 were monitored by ^31P{^1H} NMR over time at room temperature and 37°C. The stability studies of the rest of the complexes (1‐7, 9, 10) were published previously. All experiments were performed by a similar procedure: the complex (0.01 g) was introduced into a 5 mm NMR tube and dissolved in 0.5 mL of degassed solvent (DMSO-d6 and a 1 : 1 mixture of DMSO-d6/D2O). The solution was left at room temperature and monitored by ^31P{^1H} NMR first every 15 minutes, and later in longer periods. Stability was also monitored at incubation cell-based assay temperature (37°C).
All compounds were studied for their stability in 100% DMSO-d6 and DMSO-d6/D2O mixture by using NMR spectroscopy in common aerobic conditions. All experiments were performed by a similar procedure: the complex (0.01 g) was introduced into a 5 mm NMR tube and dissolved in 0.5 mL of degassed solvent (DMSO-d6 and a 1:1 mixture of DMSO-d6/D2O). The solution was left at room temperature and monitored by ^31P{^1H} NMR first every 15 minutes, and later in longer time periods. Stability was also monitored at incubation cell-based assays temperature (37 °C).

Turning to `CN1CN2CN(C)C[P]([Ru+2]([P](c3ccccc3)(c3ccccc3)c3ccccc3)[P](c3ccccc3)(c3ccccc3)c3ccccc3)(C1)C2.O=S(=O)([O-])C(F)(F)F.[Cl][Pd][Cl].c1cc[cH-]c1` [Compound 11, [RuCp(PPh3)2-µ-dmoPTA-1κP-2κ^2N,N′-PdCl2](CF3SO3)], the “Fraction converted to complex 8 (solvolysis) in DMSO” value (DMSO-d6, visible after 4 h, constant up to 48 h) is < 7%. Also, the “Stability in DMSO-d6” value (room temperature and 37°C, 48 h, 31P{1H} NMR) is on record as “very stable”.
